Results published in ChEMBL document CHEMBL1136032, “Remarkable influence of the aromatic substructure in 9-methoxystrobilurin derivatives on their antifungal activity” (Bioorg Med Chem Lett, 2002).
Activity calls are given as the source filed them. No cut-off for these calls is given here.

Tested on: Aspergillus fumigatus
Experiment: Compound was tested for the antifungal activity against Aspergillus fumigatus (R-1301) at a concentration of 10 ug/disk; zone of inhibition was measured after 48 hr incubation.
Format: functional
Conditions: not given

Row | Molecule | Diameter of inhibition zone [mm]
1 | CO\C=C(C(=O)OC)/C(C)=C(\C=C\c1ccc2ccccc2c1)OC | 18
2 | NYSTATIN | 14
3 | CO\C=C(C(=O)OC)/C(C)=C(\C=C\c1ccccc1)OC [9-METHOXYSTROBILURIN A] | 31

Tested on: Aspergillus fumigatus
Experiment: Compound was tested for the antifungal activity against Aspergillus fumigatus (R-1301) at a concentration of 0.1 ug/disk; zone of inhibition was measured after 48 hr incubation.
Format: functional
Conditions: not given

Row | Molecule | Diameter of inhibition zone [mm]
4 | CO\C=C(C(=O)OC)/C(C)=C(\C=C\c1ccc2ccccc2c1)OC | 4

Tested on: Aspergillus fumigatus
Experiment: Compound was tested for the antifungal activity against Aspergillus fumigatus (R-1301) at a concentration of 0.1 ug/disk; zone of inhibition was measured after 48 hr incubation; +/- denotes slightly effective
Format: functional, organism-based
Conditions: not given

Row | Molecule | Diameter of inhibition zone
5 | CO\C=C(C(=O)OC)/C(C)=C(\C=C\c1ccccc1)OC [9-METHOXYSTROBILURIN A] | slightly effective

Tested on: Aspergillus fumigatus
Experiment: Compound was tested for the antifungal activity against Aspergillus fumigatus (R-1301) at a concentration of 1 ug/disk; zone of inhibition was measured after 48 hr incubation.
Format: functional
Conditions: not given

Row | Molecule | Diameter of inhibition zone [mm]
6 | CO\C=C(C(=O)OC)/C(C)=C(\C=C\c1ccc2ccccc2c1)OC | 13
7 | CO\C=C(C(=O)OC)/C(C)=C(\C=C\c1ccccc1)OC [9-METHOXYSTROBILURIN A] | 15

Tested on: Candida albicans
Experiment: Compound was tested for the antifungal activity against Candida albicans (IFO1594) at a concentration of 1 ug/disk; zone of inhibition was measured after 48 h incubation; incomplete inhibition observed
Format: functional
Conditions: not given

Row | Molecule | Diameter of inhibition zone [mm]
8 | CO\C=C(C(=O)OC)/C(C)=C(\C=C\c1ccccc1)OC [9-METHOXYSTROBILURIN A] | 28

Tested on: Candida albicans
Experiment: Compound was tested for the antifungal activity against Candida albicans (IFO1594) at a concentration of 0.1 ug/disk; zone of inhibition was measured after 48 hr incubation; +/- denotes slightly effective
Format: functional, organism-based
Conditions: not given

Row | Molecule | Diameter of inhibition zone
9 | CO\C=C(C(=O)OC)/C(C)=C(\C=C\c1ccc2ccccc2c1)OC | Weak activity
10 | CO\C=C(C(=O)OC)/C(C)=C(\C=C\c1ccccc1)OC [9-METHOXYSTROBILURIN A] | incomplete inhibition

Tested on: Candida albicans
Experiment: Compound was tested for the antifungal activity against Candida albicans (IFO1594) at a concentration of 10 ug/disk; zone of inhibition was measured after 48 hr incubation.
Format: functional
Conditions: not given

Row | Molecule | Diameter of inhibition zone [mm]
11 | CO\C=C(C(=O)OC)/C(C)=C(\C=C\c1ccc2ccccc2c1)OC | 26
12 | NYSTATIN | 16

Tested on: Candida albicans
Experiment: Compound was tested for the antifungal activity against Candida albicans (IFO1594) at a concentration of 10 ug/disk; zone of inhibition was measured after 48 hr incubation; incomplete inhibition observed
Format: functional
Conditions: not given

Row | Molecule | Diameter of inhibition zone [mm]
13 | CO\C=C(C(=O)OC)/C(C)=C(\C=C\c1ccccc1)OC [9-METHOXYSTROBILURIN A] | 36

Tested on: Candida albicans
Experiment: Compound was tested for the antifungal activity against Candida albicans (IFO1594) at a concentration of 1 ug/disk; zone of inhibition was measured after 48 hr incubation.
Format: functional
Conditions: not given

Row | Molecule | Diameter of inhibition zone [mm]
14 | CO\C=C(C(=O)OC)/C(C)=C(\C=C\c1ccc2ccccc2c1)OC | 16

Tested on: Fusarium solani
Experiment: Compound was tested for the antifungal activity against Fusarium solani (R-2800) at a concentration of 1 ug/disk; zone of inhibition was measured after 48 hr incubation; incomplete inhibition observed
Format: functional
Conditions: not given

Row | Molecule | Diameter of inhibition zone [mm]
15 | CO\C=C(C(=O)OC)/C(C)=C(\C=C\c1ccc2ccccc2c1)OC | 14

Tested on: Fusarium solani
Experiment: Compound was tested for the antifungal activity against Fusarium solani (R-2800) at a concentration of 0.1 ug/disk; zone of inhibition was measured after 48 hr incubation; NE denotes not effective
Format: functional, organism-based
Conditions: not given

Row | Molecule | Diameter of inhibition zone
16 | CO\C=C(C(=O)OC)/C(C)=C(\C=C\c1ccc2ccccc2c1)OC | inactive
17 | CO\C=C(C(=O)OC)/C(C)=C(\C=C\c1ccccc1)OC [9-METHOXYSTROBILURIN A] | inactive

Tested on: Fusarium solani
Experiment: Compound was tested for the antifungal activity against Fusarium solani (R-2800) at a concentration of 10 ug/disk; zone of inhibition was measured after 48 hr incubation; NE denotes not effective
Format: functional, organism-based
Conditions: not given

Row | Molecule | Diameter of inhibition zone
18 | NYSTATIN | inactive
19 | CO\C=C(C(=O)OC)/C(C)=C(\C=C\c1ccccc1)OC [9-METHOXYSTROBILURIN A] | inactive

Tested on: Fusarium solani
Experiment: Compound was tested for the antifungal activity against Fusarium solani (R-2800) at a concentration of 10 ug/disk; zone of inhibition was measured after 48 hr incubation; incomplete inhibition observed
Format: functional
Conditions: not given

Row | Molecule | Diameter of inhibition zone [mm]
20 | CO\C=C(C(=O)OC)/C(C)=C(\C=C\c1ccc2ccccc2c1)OC | 13

Tested on: Fusarium solani
Experiment: Compound was tested for the antifungal activity against Fusarium solani (R-2800) at a concentration of 1 ug/disk; zone of inhibition was measured after 48 hr incubation; NE denotes not effective
Format: functional, organism-based
Conditions: not given

Row | Molecule | Diameter of inhibition zone
21 | CO\C=C(C(=O)OC)/C(C)=C(\C=C\c1ccccc1)OC [9-METHOXYSTROBILURIN A] | inactive

Tested on: MRC5
Experiment: Cytotoxicity against human diploid embryotic cell line (MRC-5)
Format: functional, cell-based
Conditions: Homo sapiens, MRC5

Row | Molecule | IC50 [µM]
22 | CO\C=C(C(=O)OC)/C(C)=C(\C=C\c1ccc2ccccc2c1)OC | > 100

Tested on: MRC5
Experiment: Cytotoxicity against the human diploid embryotic cell line (MRC-5)
Format: functional, cell-based
Conditions: not given

Row | Molecule | IC50 [µM]
23 | CO\C=C(C(=O)OC)/C(C)=C(\C=C\c1ccccc1)OC [9-METHOXYSTROBILURIN A] | 34

Tested on: Penicillium citrinum
Experiment: Compound was tested for the antifungal activity against Penicillium citrinum (R-3703) at a concentration of 0.1 ug/disk; zone of inhibition was measured after 48 hr incubation; +/- denotes slightly effective
Format: functional, organism-based
Conditions: not given

Row | Molecule | Diameter of inhibition zone
24 | CO\C=C(C(=O)OC)/C(C)=C(\C=C\c1ccc2ccccc2c1)OC | Weak activity

Tested on: Penicillium citrinum
Experiment: Compound was tested for the antifungal activity against Penicillium citrinum (R-3703) at a concentration of 10 ug/disk; zone of inhibition was measured after 48 h incubation.
Format: functional
Conditions: not given

Row | Molecule | Diameter of inhibition zone [mm]
25 | CO\C=C(C(=O)OC)/C(C)=C(\C=C\c1ccc2ccccc2c1)OC | 19
26 | NYSTATIN | 12
27 | CO\C=C(C(=O)OC)/C(C)=C(\C=C\c1ccccc1)OC [9-METHOXYSTROBILURIN A] | 28

Tested on: Penicillium citrinum
Experiment: Compound was tested for the antifungal activity against Penicillium citrinum (R-3703) at a concentration of 1 ug/disk; zone of inhibition was measured after 48 hr incubation.
Format: functional
Conditions: not given

Row | Molecule | Diameter of inhibition zone [mm]
28 | CO\C=C(C(=O)OC)/C(C)=C(\C=C\c1ccc2ccccc2c1)OC | 14
29 | CO\C=C(C(=O)OC)/C(C)=C(\C=C\c1ccccc1)OC [9-METHOXYSTROBILURIN A] | 18

Tested on: Penicillium citrinum
Experiment: Compound was tested for the antifungal activity against Penicillium citrinum (R-3703) at a concentration of 0.1 ug/disk; zone of inhibition was measured after 48 hr incubation.
Format: functional
Conditions: not given

Row | Molecule | Diameter of inhibition zone [mm]
30 | CO\C=C(C(=O)OC)/C(C)=C(\C=C\c1ccccc1)OC [9-METHOXYSTROBILURIN A] | 4

Tested on: Saccharomyces cerevisiae
Experiment: Compound was tested for the antifungal activity against Saccharomyces cerevisiae (IAM4861) at a concentration of 0.1 ug/disk; zone of inhibition was measured after 48 hr incubation; incomplete inhibition observed
Format: functional
Conditions: not given

Row | Molecule | Diameter of inhibition zone [mm]
31 | CO\C=C(C(=O)OC)/C(C)=C(\C=C\c1ccccc1)OC [9-METHOXYSTROBILURIN A] | 17

Tested on: Saccharomyces cerevisiae
Experiment: Compound was tested for the antifungal activity against Saccharomyces cerevisiae (IAM4861) at a concentration of 10 ug/disk; zone of inhibition was measured after 48 hr incubation.
Format: functional
Conditions: not given

Row | Molecule | Diameter of inhibition zone [mm]
32 | CO\C=C(C(=O)OC)/C(C)=C(\C=C\c1ccc2ccccc2c1)OC | 37
33 | NYSTATIN | 18

Tested on: Saccharomyces cerevisiae
Experiment: Compound was tested for the antifungal activity against Saccharomyces cerevisiae (IAM4861) at a concentration of 0.1 ug/disk; zone of inhibition was measured after 48 hr incubation.
Format: functional
Conditions: not given

Row | Molecule | Diameter of inhibition zone [mm]
34 | CO\C=C(C(=O)OC)/C(C)=C(\C=C\c1ccc2ccccc2c1)OC | 12

Tested on: Saccharomyces cerevisiae
Experiment: Compound was tested for the antifungal activity against Saccharomyces cerevisiae (IAM4861) at a concentration of 10 ug/disk; zone of inhibition was measured after 48 hr incubation; incomplete inhibition observed
Format: functional
Conditions: not given

Row | Molecule | Diameter of inhibition zone [mm]
35 | CO\C=C(C(=O)OC)/C(C)=C(\C=C\c1ccccc1)OC [9-METHOXYSTROBILURIN A] | 49

Tested on: Saccharomyces cerevisiae
Experiment: Compound was tested for the antifungal activity against Saccharomyces cerevisiae (IAM4861) at a concentration of 1 ug/disk; zone of inhibition was measured after 48 hr incubation.
Format: functional
Conditions: not given

Row | Molecule | Diameter of inhibition zone [mm]
36 | CO\C=C(C(=O)OC)/C(C)=C(\C=C\c1ccc2ccccc2c1)OC | 30

Tested on: Saccharomyces cerevisiae
Experiment: Compound was tested for the antifungal activity against Saccharomyces cerevisiae (IAM4861) at a concentration of 1 ug/disk; zone of inhibition was measured after 48 hr incubation; incomplete inhibition observed
Format: functional
Conditions: not given

Row | Molecule | Diameter of inhibition zone [mm]
37 | CO\C=C(C(=O)OC)/C(C)=C(\C=C\c1ccccc1)OC [9-METHOXYSTROBILURIN A] | 40
